# Legend:
# Type in all cases: in vivo
# [1] = system: DIGSA (Digitaria sanguinalis (L.) Scop., large crabgrass); experiment: Postemergence foliar-applied herbicidal mixtures, direct seeded rice, greenhouse (Example I)
# Text: (§1) Seeds or nutlets of the desired test plant species were planted in a soil matrix prepared by mixing a loam or sandy loam soil (e.g., 28.6 percent silt, 18.8 percent clay, and 52.6 percent sand, with a pH of about 5.8 and an organic matter content of about 1.8 percent) and calcareous grit in an 80 to 20 ratio. The soil matrix was contained in plastic pots with a volume of 1 quart and a surface area of 83.6 square centimeters (cm^2). When required to ensure good germination and healthy plants, a fungicide treatment and/or other chemical or physical treatment was applied. The plants were grown for 8-22 days in a greenhouse with an approximate 14 h photoperiod which was maintained at about 29° C. during the day and about 26° C. during the night. Nutrients (Peters Excel® 15-5-15 5-Ca 2-Mg and iron chelate) were applied in the irrigation solution as needed and water was added on a regular basis. Supplemental lighting was provided with overhead metal halide 1000-Watt lamps as necessary. The plants were employed for testing when they reached the first through fourth true leaf stage.
# (§2) Treatments consisted of the acid or esters of 4-amino-3-chloro-5-fluoro-6-(4-chloro-2-fluoro-3-methoxy-phenyl)pyridine-2-carboxylic acid (Compound A), each formulated as an SC (suspension concentrate), and various herbicidal components alone and in combination. Forms of compound A were applied on an acid equivalent basis.
# (§3) Other herbicidal components were applied on an active ingredient basis and included acetolactate synthase (ALS)-inhibiting herbicides (sulfonamide chemical class) penoxsulam formulated as Grasp® SC, diclosulam formulated as Strongarm®, and cloransulam-methyl formulated as FirstRate®, flumetsulam formulated as Flumetsulam WG, and metosulam formulated as Eclipse®.
# (§4) Treatment requirements were calculated based upon the rates being tested, the concentration of active ingredient or acid equivalent in the formulation, and a 12 mL application volume at a rate of 187 L/ha.
# (§5) For treatments comprised of formulated compounds, measured amounts of compounds were placed individually in 25 mL glass vials and diluted in a volume of 1.25% (v/v) Agri-Dex® crop oil concentrated to obtain 12× stock solutions. […] Application solutions were prepared by adding an appropriate amount of each stock solution (e.g., 1 mL) and diluted to the appropriate final concentrations with the addition of 10 mL of an aqueous mixture of 1.25% (v/v) crop oil concentrate so that the final spray solutions contained 1.25+/−0.05% (v/v) crop oil concentrate.
# (§6) All stock solutions and applications solutions were visually inspected for compound compatibility prior to application. Spray solutions were applied to the plant material with an overhead Mandel track sprayer equipped with an 8002E nozzle calibrated to deliver 187 L/ha over an application area of 0.503 m^2 at a spray height of 18 to 20 inches (46 to 50 cm) above average plant canopy height. Control plants were sprayed in the same manner with the solvent blank.
# (§7) The treated plants and control plants were placed in a greenhouse as described above and watered by sub-irrigation to prevent wash-off of the test compounds. After approximately 3 weeks, the condition of the test plants as compared with that of the untreated plants was determined visually and scored on a scale of 0 to 100 percent where 0 corresponds to no injury or growth inhibition and 100 corresponds to complete kill.
# (§8) Colby's equation was used to determine the herbicidal effects expected from the mixtures (Colby, S. R. 1967. Calculation of the synergistic and antagonistic response of herbicide combinations. Weeds 15:20-22.).
# (§9) The following equation was used to calculate the expected activity of mixtures containing two active ingredients, A and B: Expected=A+B−(A×B/100)
# [2] = system: IPOHE (Ipomoea hederacea Jacq., ivyleaf morningglory); experiment: as above
# Text: as §1, §2, §3, §4, §5, §6, §7, §8, §9
# [3] = system: LEFCH (Leptochloa chinensis (L.) Nees, Chinese sprangletop); experiment: as above
# Text: as §1, §2, §3, §4, §5, §6, §7, §8, §9
# [4] = system: CYPRO (Cyperus rotundus L., purple nutsedge); experiment: In-water applied herbicidal mixtures, transplanted paddy rice, greenhouse (Example II); details: Compound A Acid 8.75 gae/ha
# Protocol: (§10) Weed seeds or nutlets of the desired test plant species were planted in puddled soil (mud) prepared by mixing a shredded, non-sterilized mineral soil (50.5 percent silt, 25.5 percent clay, and 24 percent sand, with a pH of about 7.6 and an organic matter content of about 2.9 percent) and water at a 1:1 volumetric ratio. The prepared mud was dispensed in 365 mL aliquots into 16-ounce (oz.) non-perforated plastic pots with a surface area of 86.59 square centimeters (cm^2) leaving a headspace of 3 centimeters in each pot. Mud was allowed to dry overnight prior to planting or transplanting. Rice seeds were planted in Sun Gro MetroMix® 306 planting mixture, which typically has a pH of 6.0 to 6.8 and an organic matter content of about 30 percent, in plastic plug trays. Seedlings at the second or third leaf stage of growth were transplanted into 840 mL of mud contained in 32-oz. non-perforated plastic pots with a surface area of 86.59 cm^2 4 days prior to herbicide application. The paddy was created by filling the headspace of the pots with 2.5 to 3 cm of water. When required to ensure good germination and healthy plants, a fungicide treatment and/or other chemical or physical treatment was applied. The plants were grown for 4-22 days in a greenhouse with an approximate 14 h photoperiod which was maintained at about 29′C during the day and about 26° C. during the night. Nutrients were added as Osmocote® (19:6:12, N:P:K+minor nutrients) at 2 g per 16-oz. pot and 4 g per 32-oz. pot. Water was added on a regular basis to maintain the paddy flood, and supplemental lighting was provided with overhead metal halide 1000-Watt lamps as necessary. The plants were employed for testing when they reached the first through fourth true leaf stage.
# (§11) Treatments consisted of the acid or esters of 4-amino-3-chloro-5-fluoro-6-(4-chloro-2-fluoro-3-methoxy-phenyl)pyridine-2-carboxylic acid (compound A) each formulated as an SC and various herbicidal components alone and in combination. Forms of compound A were applied on an acid equivalent basis.
# (§12) Other herbicidal components were applied on an active ingredient basis and included acetolactate synthase (ALS)-inhibiting herbicides (sulfonamide chemical class) penoxsulam formulated as Grasp® SC (GF-443), diclosulam formulated as Strongarm®, and cloransulam-methyl formulated as FirstRate®.
# (§13) Treatment requirements for each compound or herbicidal component were calculated based upon the rates being tested, the concentration of active ingredient or acid equivalent in the formulation, an application volume of 2 mL per component per pot, and an application area of 86.59 cm^2 per pot.
# (§14) For formulated compounds, a measured amount was placed in an individual 100 or 200 mL glass vial and was dissolved in a volume of 1.25% (v/v) Agri-Dex® crop oil concentrate to obtain each application solution.
# (§15) Applications were made by injecting with a pipetter appropriate amounts of the application solutions, individually and sequentially, into the aqueous layer of the paddy. Control plants were treated in the same manner with the solvent blank. Applications were made so that all treated plant material received the same concentrations of acetone and crop oil concentrate.
# as §7, with “water was added as needed” for “watered by sub-irrigation”, “maintain a paddy flood.” for “prevent wash-off of the test compounds.”, “weeks” for “weeks,”
# as §8, §9
# [5] = system: FIMMI (Fimbristylis miliacea (L.) Vahl, globe fringerush); experiment: as above
# Protocol: as §10, §11, §12, §13, §14, §15
# as §7, with “water was added as needed” for “watered by sub-irrigation”, “maintain a paddy flood.” for “prevent wash-off of the test compounds.”, “weeks” for “weeks,”
# as §8, §9
# [6] = system: LEFCH (Leptochloa chinensis (L.) Nees, Chinese sprangletop); experiment: as above
# Protocol: as §10, §11, §12, §13, §14, §15
# as §7, with “water was added as needed” for “watered by sub-irrigation”, “maintain a paddy flood.” for “prevent wash-off of the test compounds.”, “weeks” for “weeks,”
# as §8, §9
# [7] = system: ECHCG (Echinochloa crusgalli (L.) Beauv., barnyardgrass); experiment: as above
# Protocol: as §10, §11, §12, §13, §14, §15
# as §7, with “water was added as needed” for “watered by sub-irrigation”, “maintain a paddy flood.” for “prevent wash-off of the test compounds.”, “weeks” for “weeks,”
# as §8, §9
# [8] = system: CYPDI (Cyperus difformis L., smallflower umbrella sedge); experiment: as above; details: Compound A Acid 16 gae/ha
# Protocol: as §10, §11, §12, §13, §14, §15
# as §7, with “water was added as needed” for “watered by sub-irrigation”, “maintain a paddy flood.” for “prevent wash-off of the test compounds.”, “weeks” for “weeks,”
# as §8, §9
compound,measurement,setting,value
"COc1c(Cl)ccc(-c2nc(C(=O)O)c(Cl)c(N)c2F)c1F [Compound A Acid, 4-amino-3-chloro-5-fluoro-6-(4-chloro-2-fluoro-3-methoxy-phenyl)pyridine-2-carboxylic acid]",Visual Weed Control (%) - 20 DAA DIGSA Obs,[1]; Compound A Acid 5.3 gae/ha,10%
same,Visual Weed Control (%) - 20 DAA DIGSA Obs,[1]; Compound A Acid 10.6 gae/ha,20%
same,Visual Weed Control (%) - 20 DAA DIGSA Obs,[1]; Compound A Acid 21.2 gae/ha,20%
same,Visual Weed Control (%) - 27 DAA IPOHE Obs,[2]; Compound A Acid 4.38 gae/ha,10%
same,Visual Weed Control (%) - 27 DAA IPOHE Obs,[2]; Compound A Acid 8.75 gae/ha,10%
same,Visual Weed Control (%) - 27 DAA IPOHE Obs,[2]; Compound A Acid 17.5 gae/ha,10%
same,Visual Weed Control (%) - 20 DAA LEFCH Obs,[3]; Compound A Acid 4.38 gae/ha,15%
same,Visual Weed Control (%) - 20 DAA LEFCH Obs,[3]; Compound A Acid 5.3 gae/ha,0%
same,Visual Weed Control (%) - 20 DAA LEFCH Obs,[3]; Compound A Acid 8.75 gae/ha,30%
same,Visual Weed Control (%) - 20 DAA LEFCH Obs,[3]; Compound A Acid 10.6 gae/ha,10%
same,Visual Weed Control (%) - 20 DAA LEFCH Obs,[3]; Compound A Acid 17.5 gae/ha,50%
same,Visual Weed Control (%) - 19 DAA LEFCH Obs,[3]; Compound A Acid 19.4 gae/ha,5%
same,Visual Weed Control (%) - 20 DAA LEFCH Obs,[3]; Compound A Acid 21.2 gae/ha,15%
same,Visual Weed Control (%) - 21 DAA CYPRO Obs,[4],0%
same,Visual Weed Control (%) - 21 DAA FIMMI Obs,[5]; Compound A Acid 16 gae/ha,20%
same,Visual Weed Control (%) - 21 DAA FIMMI Obs,[5]; Compound A Acid 32 gae/ha,20%
same,Visual Weed Control (%) - 25 DAA LEFCH Obs,[6]; Compound A Acid 8.75 gae/ha,50%
same,Visual Weed Control (%) - 25 DAA LEFCH Obs,[6]; Compound A Acid 17.5 gae/ha,50%
same,Visual Weed Control (%) - 25 DAA LEFCH Obs,[6]; Compound A Acid 35 gae/ha,85%
same,Visual Weed Control (%) - 22 DAA ECHCG Obs,[7]; Compound A Acid 16 gae/ha,20%
same,Visual Weed Control (%) - 22 DAA ECHCG Obs,[7]; Compound A Acid 32 gae/ha,25%
same,Visual Weed Control (%) - 21 DAA CYPDI Obs,[8],30%

# From patent US8906825B2, “Herbicidal compositions comprising 4-amino-3-chloro-5-fluoro-6-(4-chloro-2-fluoro-3-methoxyphenyl) pyridine-2-carboxylic acid or a derivative thereof and triazolopyrimidine sulfonamides” (Dow AgroSciences LLC, priority 2012, dated 2014)
